# Measurements taken from PubChem BioAssay AID1259407 (Chemical Carcinogenesis Research Information System (CCRIS), 2018).
# Calls of active or inactive are those of the source. The rule behind the calls is not given here.
# System: CCRIS mutagenicity, Ames/micronucleus/aberration tests
# Experiment: CCRIS mutagenicity studies
# [1] = Test System: AMES SALMONELLA TYPHIMURIUM, Strain/Indicator: TA98, Metabolic Activation: NONE, Method: PREINCUBATION
# [2] = Test System: AMES SALMONELLA TYPHIMURIUM, Strain/Indicator: TA100, Metabolic Activation: NONE, Method: STANDARD PLATE
structure (smiles),measurement,setting,value
OCc1ccccc1,mutagenic call,"End Point: IN VIVO MICRONUCLEUS, Test System: BONE MARROW POLYCHROMATIC ERYTHROCYTES, Species: MOUSE, Strain/Sex: DDY/MALE, Route: IP",inactive; negative
same,mutagenic call,"Test System: AMES SALMONELLA TYPHIMURIUM, Strain/Indicator: TA97, Metabolic Activation: NONE, Method: PREINCUBATION",inactive; negative
same,mutagenic call,"Test System: AMES SALMONELLA TYPHIMURIUM, Strain/Indicator: TA97, Metabolic Activation: RAT, LIVER, S-9, AROCLOR 1254, Method: PREINCUBATION",inactive; negative
same,mutagenic call,"Test System: AMES SALMONELLA TYPHIMURIUM, Strain/Indicator: TA98, Metabolic Activation: HAMSTER, LIVER, S-9, AROCLOR 1254, Method: PREINCUBATION",inactive; negative
same,mutagenic call,[1],inactive; negative
same,mutagenic call,"Test System: AMES SALMONELLA TYPHIMURIUM, Strain/Indicator: TA98, Metabolic Activation: RAT, LIVER, S-9, AROCLOR 1254, Method: PREINCUBATION",inactive; negative
same,mutagenic call,"Test System: AMES SALMONELLA TYPHIMURIUM, Strain/Indicator: TA100, Metabolic Activation: HAMSTER, LIVER, S-9, AROCLOR 1254, Method: PREINCUBATION",inactive; negative
same,mutagenic call,"Test System: AMES SALMONELLA TYPHIMURIUM, Strain/Indicator: TA100, Metabolic Activation: NONE, Method: PREINCUBATION",inactive; negative
same,mutagenic call,[2],inactive; negative
same,mutagenic call,"Test System: AMES SALMONELLA TYPHIMURIUM, Strain/Indicator: TA100, Metabolic Activation: RAT, LIVER, S-9, AROCLOR 1254, Method: PREINCUBATION",inactive; negative
same,mutagenic call,"Test System: AMES SALMONELLA TYPHIMURIUM, Strain/Indicator: TA102, Metabolic Activation: NONE, Method: PREINCUBATION",inactive; negative
same,mutagenic call,"Test System: AMES SALMONELLA TYPHIMURIUM, Strain/Indicator: TA102, Metabolic Activation: RAT, LIVER, S-9, AROCLOR 1254, Method: PREINCUBATION",inactive; negative
same,mutagenic call,"Test System: AMES SALMONELLA TYPHIMURIUM, Strain/Indicator: TA1535, Metabolic Activation: HAMSTER, LIVER, S-9, AROCLOR 1254, Method: PREINCUBATION",inactive; negative
same,mutagenic call,"Test System: AMES SALMONELLA TYPHIMURIUM, Strain/Indicator: TA1535, Metabolic Activation: NONE, Method: PREINCUBATION",inactive; negative
same,mutagenic call,"Test System: AMES SALMONELLA TYPHIMURIUM, Strain/Indicator: TA1535, Metabolic Activation: RAT, LIVER, S-9, AROCLOR 1254, Method: PREINCUBATION",inactive; negative
same,mutagenic call,"Test System: AMES SALMONELLA TYPHIMURIUM, Strain/Indicator: TA1537, Metabolic Activation: HAMSTER, LIVER, S-9, AROCLOR 1254, Method: PREINCUBATION",inactive; negative
same,mutagenic call,"Test System: AMES SALMONELLA TYPHIMURIUM, Strain/Indicator: TA1537, Metabolic Activation: NONE, Method: PREINCUBATION",inactive; negative
same,mutagenic call,"Test System: AMES SALMONELLA TYPHIMURIUM, Strain/Indicator: TA1537, Metabolic Activation: RAT, LIVER, S-9, AROCLOR 1254, Method: PREINCUBATION",inactive; negative
same,mutagenic call,"Test System: Ames Salmonella typhimurium, Strain/Indicator: TA98, Metabolic Activation: None, Method: Direct plate incorporation",inactive; negative
same,mutagenic call,"Test System: Ames Salmonella typhimurium, Strain/Indicator: TA98, Metabolic Activation: Rat, liver, S-9, Aroclor 1254, Method: Direct plate incorporation",inactive; negative
same,mutagenic call,"Test System: Ames Salmonella typhimurium, Strain/Indicator: TA100, Metabolic Activation: None, Method: Direct plate incorporation",inactive; negative
same,mutagenic call,"Test System: Ames Salmonella typhimurium, Strain/Indicator: TA100, Metabolic Activation: Rat, liver, S-9, Aroclor 1254, Method: Direct plate incorporation",inactive; negative
same,mutagenic call,"Test System: MOUSE LYMPHOMA, Strain/Indicator: L5178Y (TK+/TK-), Metabolic Activation: RAT, LIVER, S-9, AROCLOR 1254, Method: SUSPENSION/PLATE",inactive; negative
O=[N+]([O-])c1ccc2nc3cc([N+](=O)[O-])ccc3nc2c1,mutagenic call,"Test System: AMES SALMONELLA TYPHIMURIUM, Strain/Indicator: TA98(NR), Metabolic Activation: NONE, Method: PREINCUBATION",active; positive
same,mutagenic call,[1],active; positive
O=C(NC(Cc1cc(=O)[nH]c2ccccc12)C(=O)O)c1ccc(Cl)cc1 (stereo not given),mutagenic call,"Test System: AMES SALMONELLA TYPHIMURIUM, Strain/Indicator: TA98, Metabolic Activation: NONE, Method: STANDARD PLATE",inactive; negative
same,mutagenic call,"Test System: AMES SALMONELLA TYPHIMURIUM, Strain/Indicator: TA98, Metabolic Activation: S-9, Method: STANDARD PLATE",inactive; negative
same,mutagenic call,[2],inactive; negative
same,mutagenic call,"Test System: AMES SALMONELLA TYPHIMURIUM, Strain/Indicator: TA100, Metabolic Activation: S-9, Method: STANDARD PLATE",inactive; negative
same,mutagenic call,"Test System: AMES SALMONELLA TYPHIMURIUM, Strain/Indicator: TA1535, Metabolic Activation: NONE, Method: STANDARD PLATE",inactive; negative
same,mutagenic call,"Test System: AMES SALMONELLA TYPHIMURIUM, Strain/Indicator: TA1535, Metabolic Activation: S-9, Method: STANDARD PLATE",inactive; negative
same,mutagenic call,"Test System: AMES SALMONELLA TYPHIMURIUM, Strain/Indicator: TA1537, Metabolic Activation: NONE, Method: STANDARD PLATE",inactive; negative
same,mutagenic call,"Test System: AMES SALMONELLA TYPHIMURIUM, Strain/Indicator: TA1537, Metabolic Activation: S-9, Method: STANDARD PLATE",inactive; negative
same,mutagenic call,"Test System: AMES SALMONELLA TYPHIMURIUM, Strain/Indicator: TA1538, Metabolic Activation: NONE, Method: STANDARD PLATE",inactive; negative
same,mutagenic call,"Test System: AMES SALMONELLA TYPHIMURIUM, Strain/Indicator: TA1538, Metabolic Activation: S-9, Method: STANDARD PLATE",inactive; negative
same,mutagenic call,"Test System: E.COLI, Strain/Indicator: WP2 UVRA, Metabolic Activation: NONE, Method: STANDARD PLATE",inactive; negative
same,mutagenic call,"Test System: E.COLI, Strain/Indicator: WP2 UVRA, Metabolic Activation: S-9, Method: STANDARD PLATE",inactive; negative
CSCNc1ccccc1,mutagenic call,"Test System: AMES SALMONELLA TYPHIMURIUM, Strain/Indicator: TA100, Metabolic Activation: NONE, Method: SPOT TEST",active; positive
same,mutagenic call,"Test System: AMES SALMONELLA TYPHIMURIUM, Strain/Indicator: TA100, Metabolic Activation: RAT, LIVER, S-9, AROCLOR 1254, Method: SPOT TEST",active; positive
same,mutagenic call,"Test System: AMES SALMONELLA TYPHIMURIUM, Strain/Indicator: TA102, Metabolic Activation: NONE, Method: SPOT TEST",active; positive
same,mutagenic call,"Test System: AMES SALMONELLA TYPHIMURIUM, Strain/Indicator: TA102, Metabolic Activation: RAT, LIVER, S-9, AROCLOR 1254, Method: SPOT TEST",active; positive
CC(C)(C)Br,mutagenic call,"Test System: AMES SALMONELLA TYPHIMURIUM, Strain/Indicator: TA100, Metabolic Activation: NONE, Method: DESICCATOR",active; positive
same,mutagenic call,"Test System: AMES SALMONELLA TYPHIMURIUM, Strain/Indicator: TA100, Metabolic Activation: RAT, LIVER, S-9, AROCLOR 1254, Method: DESICCATOR",active; positive
Oc1cc(O)cc(/C=C/c2ccc(O)c(O)c2)c1,mutagenic call,"Test System: Ames Salmonella typhimurium, Strain/Indicator: TA102, Metabolic Activation: None, Method: Preincubation",inactive; negative
same,mutagenic call,"Test System: Ames Salmonella typhimurium, Strain/Indicator: TA102, Metabolic Activation: Rat, Liver, S-9, Aroclor 1254 in 0.154 M KCl, Method: Preincubation",inactive; negative
